Where “and” joins values, the source holds several entries; their conditions need not be identical. Equal entries are not always repeated. Entries after “also recorded” stand apart in the source; their conditions may differ. Marks after values point to notes of the source that are not given here.
Legend:
anti-rhGAA IgG response = conditions: methotrexate alone, transient low dose co-initiated with ERT, Joseph et al. (2008); cited from earlier work
[1] = tested on: anti-rhGAA IgG antibodies; assay: Anti-rhGAA IgG antibody titers over time (ELISA, confirmed by radioimmunoprecipitation) in Pompe disease patients on ERT with TLD-MTX or on ERT monotherapy (comparators); type: in vivo, human; conditions: for Overall immune tolerance outcome versus historical data: cohort conclusion in words; for Development of HSAT: methotrexate recipients: Example 2 (n=17), Example 3 (n=14, by data cutoff Jun. 16, 2017)
Protocol: Methotrexate at 0.4 mg/kg body weight was administered subcutaneously (or orally if subcutaneous administration was not possible) on three consecutive days/MTX cycle/infusion; with the first three ERT infusions (i.e., on Days 0, 14, and 28 for patients infused EOW) for a total of 3 cycles. On the day of ERT infusion, methotrexate was administered 15 minutes (if subcutaneous) or 1 hour (if oral) before infusion initiation and again on the following 2 days. To exemplify the schedule, in a patient receiving ERT infusion EOW, methotrexate was administered on Days 0, 1, and 2 (first cycle); Days 14, 15, and 16 (second cycle), and Days 28, 29, and 30 (third cycle). As stated earlier, the dose and frequency of ERT could be increased at the discretion of the treating physician, based on patients' clinical and IAR status, in which case methotrexate cycles were adjusted accordingly (see FIG. 2 for details).
Anti-rhGAA IgG antibodies were determined by Sanofi Genzyme (Framingham, MA, USA) using enzyme-linked immunosorbent assays and confirmed using radioimmunoprecipitation as described previously (Kishnani et al. (2006) J. Pediatr. 149:89-97). Antibody analyses were recommended to be performed at Days −1, 28, 56, 84, 112, 140, 168, 196, 224, 252, 280, 308, 336, and 364.
rhGAA IgG titers were determined over time. Patients were classified into HSAT (≥51,200 on ≥2 occasions at or beyond 6 months on ERT), sustained intermediate titer (SIT) (≥12,800 and <51,200 within the first year of ERT), and low titer (LT; ≤6,400 within the first year of ERT) groups based on the longitudinal anti-rhGAA IgG titers. […] Medians and ranges were determined for baseline, peak, and last titers, although our focus was on longitudinal titers through time because sustained titers affect clinical response.
The comparators received rhGAA alone. The GAA variant data and age at ERT initiation were compared with our cohort of TLD-MTX recipients. Immune responses over time were classified into HSAT, SIT, and LT as defined above, and time to seroconversion, peak titers, titers at Weeks 12, 24, and 52 were compared with our present cohort of TLD-MTX recipients.

[2] = Safety: hematologic and biochemical analyses (ANC, AST, ALT), adverse events and infections in methotrexate recipients; type: in vivo, human; conditions: for Neutropenia (ANC <750 cells/mm^3), percent of patients: transient; for ALT > 3x baseline (Yes/No) / ANC < 750 cells/mm^3 (Yes/No) / AST > 3x baseline (Yes/No): first 6 weeks on alglucosidase alfa
Protocol: On Days −1 (baseline), 13, 28, 42, 56, 84, 168, 252, 336, and 364, blood samples were recommended to be collected for hematologic and biochemical analyses for patients receiving ERT EOW. The sampling schedule was modified for patients receiving ERT weekly (FIG. 2). Complete and differential blood counts and platelets were evaluated and monitored for platelet counts <50,000/mm^3, ANC <750/mm^3, and treatment-resistant infections. Biochemical analyses monitored alanine aminotransferase (ALT), aspartate aminotransferase (AST), creatine kinase (CK), and CK-MB levels. Post-treatment increases in AST and ALT levels were noted if exceeding three times their respective baseline levels.

[3] = individual SIT patients IOPD13 and IOPD14 (patient named in the cell), listed as TLD-MTX
[4] = individual atypical IOPD patients

CN(Cc1cnc2nc(N)nc(N)c2n1)c1ccc(C(=O)N[C@@H](CCC(=O)O)C(=O)O)cc1 [methotrexate]
Effect on anti-rhGAA IgG response (anti-rhGAA IgG response): sustainably reduced anti-rhGAA IgG response
Median last titer ([1]; 17 CRIM-positive IOPD, atypical IOPD and LOPD methotrexate recipients (Example 2), median ~68 weeks on alglucosidase alfa): 100 (range, 0-6400) and 100 (range 0-6400)
Patients remaining seronegative ([1]; Example 2 cohort of 17 patients): 1 of 17
Highest observed titer in the study ([1]; Example 2 cohort, IOPD patient (Patient 3) given one methotrexate dose each in cycles 2 and 3): 12,800
Percent of patients in HSAT group ([1]; HSAT: titers >=51,200 on >=2 occasions at or beyond 6 months on ERT, IOPD): 0%
Titer ([1]; IOPD Patient 3, Week 49): 400
Titer ([1]; IOPD Patient 3, by Week 20): 3200
Percent of patients who developed HSAT or SIT ([1]; IOPD, comparator group n=37, TLD-MTX group n=14): 14.2%
Median peak titers ([1]; LT group, IOPD): 3,200
Median titers (Week 12) ([1]; LT group, IOPD): 1,600
Median titers (Week 24) ([1]; LT group, IOPD): 600
Median titers (Week 52) ([1]; LT group, IOPD, seropositive titers <100 deemed 50): 250***
Percent of patients in SIT group ([1]; SIT: titers >=12,800 and <51,200 within first year of ERT, IOPD): 14.2% (n = 2)
Overall immune tolerance outcome versus historical data ([1]; listed as TLD-MTX): successfully blunted the immune response overall
Overall immune tolerance outcome versus historical data ([1]; listed as low-dose methotrexate): successfully induced immune tolerance
Peak antibody titer since immune tolerance induction ([1]; individual IOPD patients (one line per patient), >6 months follow-up, methotrexate 0.4 mg/kg, 3 cycles, with alglucosidase alfa): 3,200 (3×) and <100 and 200 and 800 (3×) and 6,400
Peak antibody titer since immune tolerance induction ([1]; individual IOPD patients (one line per patient), >6 months follow-up, methotrexate 0.4 mg/kg, 3 cycles, with alglucosidase alfa, single methotrexate dose in cycles 2 and 3): 12,800*
Last antibody titer ([1]; individual IOPD patients (one line per patient), last titer at 42-122 weeks on ERT): 0 (4×) and 400 and <100 and 100 (2×) and 6,400
Last antibody titer ([1]; individual IOPD patients (one line per patient), last titer at 42-122 weeks on ERT, single methotrexate dose in cycles 2 and 3): 400
Peak antibody titer ([1]; individual IOPD patients IOPD1-IOPD14 (one line per patient) on TLD-MTX protocol, >6 months follow-up): 12,800* and 3,200 (4×) and 200 (2×) and 800 (3×) and 6,400 and 51,200** and 25,600*** and <100
Last antibody titer ([1]; individual IOPD patients IOPD1-IOPD14 on TLD-MTX protocol, last titer at 32-122 weeks on ERT): 400 (3×) and 0 (4×) and <100 and 100 (2×) and 6,400 and 200 and 12,800 and 12.800
Peak antibody titer since immune tolerance induction ([1]; individual LOPD patients (one line per patient), >6 months follow-up): 1,600 and 800
Last antibody titer ([1]; individual LOPD patients, last titer at 63 and 27 weeks on ERT): 0 and 400
Titer (Week 52) ([1]; individual SIT patient IOPD13): IOPD13: 12,800
Peak titer [1, 3]: IOPD13: 51,200;; also recorded: IOPD14: 12,800
Titer (Week 12) [1, 3]: IOPD13: 12,800;; also recorded: IOPD14: 25,600
Titer (Week 24) [1, 3]: IOPD13: 12,800;; also recorded: IOPD14: 12,800
Peak antibody titer since immune tolerance induction ([1]; individual atypical IOPD patients (one line per patient), >6 months follow-up): 3,200 and Never and <100 and 800 and 200
Last antibody titer ([1]; individual atypical IOPD patients, last titer at 58-145 weeks on ERT): 400 and 0 and <100 and 200 (2×)
Peak antibody titer, median ([1]; median of 14 IOPD patients on TLD-MTX protocol): 3,200
Last antibody titer, median ([1]; median of 14 IOPD patients on TLD-MTX protocol, median time on ERT ~71 weeks): 150 (range, 0-12,800)
Development of HSAT [1]: No patients who received methotrexate developed HSAT; also recorded: No methotrexate recipients developed HSAT
Development of HSAT ([1]; listed as TLD-MTX): No patients who received TLD-MTX developed HSAT
Maximal titer ([1]; one methotrexate-treated LOPD patient, Weeks 16 and 20): 1,600
Titers remaining (seropositive on screening assay, below limit of titer measurement) ([1]; patient IOPD2): < 100
Titer ([1]; patient IOPD13, Week 7 only): 51,200
Peak titer after the cutoff date (HSAT developed) ([1]; patient IOPD13, Week 76): 102,400
Titer ([1]; patient IOPD13, Weeks 12 and 37): 25,600
Titer ([1]; patient IOPD13, Weeks 14, 17, 23, 31 and 44): 12,800
Titer ([1]; patient IOPD14, Week 28 only): 25,600
Last titer after the cutoff for data collection ([1]; patient IOPD14, Week 36): 6,400
Titer ([1]; patient IOPD14, Weeks 12, 16, 24 and 32): 12,800
Titer ([1]; same LOPD patient, Week 63): 0
Titer ([1]; same LOPD patient, Weeks 32-55): 100
Titer ([1]; the other LOPD patient, Week 27): 400
Maximal titer ([1]; the other methotrexate-treated LOPD patient, Weeks 9-16): 800
Neutropenia (ANC <750 cells/mm^3), percent of patients ([2]; 2 of 9 IOPD patients with ANC data (Example 2)): 22%
Neutropenia (ANC <750 cells/mm^3), percent of patients ([2]; 2 of 13 IOPD patients with ANC data (Example 3)): 15.4%
ALT > 3x baseline (Yes/No) ([2]; individual IOPD patients): Yes (3×) and No (5×)
ANC < 750 cells/mm^3 (Yes/No) ([2]; individual IOPD patients): Yes (2×) and No (7×)
AST > 3x baseline (Yes/No) ([2]; individual IOPD patients): No (7×) and Yes
ALT > 3x baseline (Yes/No) ([2]; individual LOPD patients): No
ANC < 750 cells/mm^3 (Yes/No) ([2]; individual LOPD patients): No
AST > 3x baseline (Yes/No) ([2]; individual LOPD patients): No
ALT > 3x baseline (Yes/No) [2, 4]: No
ANC < 750 cells/mm^3 (Yes/No) [2, 4]: No
AST > 3x baseline (Yes/No) [2, 4]: No
Overall tolerability ([2]; methotrexate recipients): tolerated the methotrexate protocol reasonably
Serious AEs related to methotrexate ([2]; methotrexate recipients): No serious AEs were related to methotrexate
Patients with hospitalizations related to infections around the time of methotrexate administration ([2]; patients with infection data available (Example 3), resolved): Two of nine
